Laboratory results: US20170081368A1, “PEPTIDES AS OXYTOCIN AGONISTS” (Hoffmann-La Roche Inc., priority 2014, published 2017)
Where a SMILES comes first, the peptide text is derived from it.

Molecular target: T1, human Oxytocin (OTR) receptor (Homo sapiens, UniProt P30559)
T1 construct: expressed in transfected cells
T1 sequence (P30559 1-389): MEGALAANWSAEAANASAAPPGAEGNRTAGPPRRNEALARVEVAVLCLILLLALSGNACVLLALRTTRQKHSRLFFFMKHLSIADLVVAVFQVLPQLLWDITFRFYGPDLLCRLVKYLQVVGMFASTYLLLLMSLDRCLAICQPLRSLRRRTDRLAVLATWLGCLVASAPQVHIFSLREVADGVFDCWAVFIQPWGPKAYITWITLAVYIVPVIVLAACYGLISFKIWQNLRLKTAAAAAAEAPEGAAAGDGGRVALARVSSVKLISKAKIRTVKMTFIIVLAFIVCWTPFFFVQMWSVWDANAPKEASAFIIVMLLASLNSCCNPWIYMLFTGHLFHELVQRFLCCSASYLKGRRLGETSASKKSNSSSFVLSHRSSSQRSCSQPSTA
Assay: Calcium flux assay (FLIPR) in CHO cells expressing human OTR
Format: cell-based
Details: for Emax: CHO, maximum response normalized to endogenous full agonist = 100%, read-out: hOT efficacy; for EC50: agonist mode, CHO cells, calcium flux FLIPR, read-out: hOT EC50
Source text: Chines Hamster Ovary (CHO) cells were transfected with expression plasmids encoding either the human Vla, the human Oxytocin (OTR) or the humanV2 receptor, the later in combination with the chimeric Gqs5 G protein to redirect the signal to Calcium flux. Stable cells were cloned by limiting dilution to yield monoclonal cell lines expressing either human Vla, human V2+Gqs5 or human OTR receptors and selected based on functional responses detected on a fluorometric imaging plate reader (FLIPR) detecting Calcium flux in the cell after receptor activation. The stable cell lines were grown in F-12 K Nutrient Mixture (Kaighns Modification), containing 10% foetal bovine serum (FBS), 1% penicillin-streptomycin, 1% L-glutamate, 200 ug/ml Geneticin at 37° C. in a 10% CO2 incubator at 95% humidity.
Calcium Flux Assays Using Fluorescent Imaging (Fluorometric Imaging Plate Reader, FLIPR)
On the afternoon before the assay, cells were plated at a density of 50,000 cells/well into black 96 well plates with clear bottoms to allow cell inspection and fluorescence measurements from the bottom of each well. The density of cells was sufficient to yield a confluent monolayer the next day. Hanks balanced salt solution, without phenol red, containing 20 mM HEPES (pH 7.3) and 2.5 mM probenecid (assay buffer) was prepared fresh for each experiment. Compound dilutions were made using a Beckman Biomek 2000 laboratory automation workstation, in assay buffer containing 1% DMSO. The dye-loading buffer consisted of a final concentration of 2 μM Fluo-4-AM (dissolved in DMSO and pluronic acid) in assay buffer. The existing culture media was removed from the wells and 100 μl of the dye-loading buffer was added to each well and incubated for approximately 60 min at 37° C. in a 5% CO2 incubator at 95% humidity. Once dye-loaded, the cells were washed thoroughly on an Embla cell washer with the assay buffer to remove any unincorporated dye. Exactly 100 μl assay buffer was left in each well.
Each 96 well plate containing dye-loaded cells was placed into the FLIPR machine and the laser intensity set to a suitable level to detect low basal fluorescence. To test compounds as agonists, 25 μl diluted compound was added to the plate 10 seconds into the fluorescent measurements and fluorescent response was recorded for 5 minutes. The fluorescence data was normalized to the endogenous full agonist dose-response set at 100% for the maximum response and 0% for the minimum. Each agonist concentration-response curve was constructed using a four parameter logistic equation with Microsoft Excel XLFit as follows: Y=Minimum+((Maximum−Minimum)/(1+10^(LogEC50−X)nH)), where y is the % normalized fluorescence, minimum is the minimum y, maximum is the maximum y, log EC50 is the log10 concentration which produces 50% of the maximum induced fluorescence, x is the log10 of the concentration of the agonist compound and H is the slope of the curve (the Hill Coefficient). The maximum value gives the efficacy of the agonist test compound in percentage. The concentration of agonist that produced a half-maximal response is represented by the EC50 value, the logarithm of which yielded the pEC50 value.

Compound `CC[C@H](C)[C@@H]1NC(=O)[C@H](Cc2ccc(O)cc2)NC(=O)CCS(=O)(=O)CC[C@@H](C(=O)N2CC(F)(F)C[C@H]2C(=O)N[C@@H](CC(C)C)C(=O)NCC(N)=O)NC(=O)[C@H](CC(N)=O)NC(=O)[C@H](CCC(N)=O)NC1=O` [Example 3] (HELM PEPTIDE1{Y.I.Q.N.[O=C([C@H](CCS(=O)(=O)CCC(=O)[*:3])N[*:1])[*:2]].[O=C([C@@H]1CC(F)(F)CN1[*:1])[*:2]].L.G.[am]}$PEPTIDE1,PEPTIDE1,1:R1-5:R3$$$V2.0) has an Emax of 144% and an EC50 of 1.7 nM.
For `CC[C@H](C)[C@@H]1NC(=O)[C@H](Cc2ccc(O)cc2)NC(=O)CCS(=O)(=O)CC[C@@H](C(=O)N2CC[C@H]2C(=O)N[C@@H](CC(C)C)C(=O)NCC(N)=O)NC(=O)[C@H](CC(N)=O)NC(=O)[C@H](CCC(N)=O)NC1=O` [Example 4] (HELM PEPTIDE1{Y.I.Q.N.[O=C([C@H](CCS(=O)(=O)CCC(=O)[*:3])N[*:1])[*:2]].[O=C([C@@H]1CCN1[*:1])[*:2]].L.G.[am]}$PEPTIDE1,PEPTIDE1,1:R1-5:R3$$$V2.0), the Emax was 128% and the EC50 was 3 nM.
With `CC[C@H](C)[C@@H]1NC(=O)[C@H](Cc2ccc(O)cc2)NC(=O)CCS(=O)(=O)CC[C@@H](C(=O)N2CCCC[C@H]2C(=O)N[C@@H](CC(C)C)C(=O)NCC(N)=O)NC(=O)[C@H](CC(N)=O)NC(=O)[C@H](CCC(N)=O)NC1=O` [Example 5] (HELM PEPTIDE1{Y.I.Q.N.[O=C([C@H](CCS(=O)(=O)CCC(=O)[*:3])N[*:1])[*:2]].[O=C([C@@H]1CCCCN1[*:1])[*:2]].L.G.[am]}$PEPTIDE1,PEPTIDE1,1:R1-5:R3$$$V2.0) the Emax was 130% and the EC50 was 3.8 nM.
`CC[C@H](C)[C@@H]1NC(=O)[C@H](Cc2ccc(O)cc2)NC(=O)CCS(=O)(=O)CC[C@@H](C(=O)N2C[C@@H](F)C[C@H]2C(=O)N[C@@H](CC(C)C)C(=O)NCC(N)=O)NC(=O)[C@H](CC(N)=O)NC(=O)[C@H](CCC(N)=O)NC1=O` [Example 6] (HELM PEPTIDE1{Y.I.Q.N.[O=C([C@H](CCS(=O)(=O)CCC(=O)[*:3])N[*:1])[*:2]].[O=C([C@@H]1C[C@H](F)CN1[*:1])[*:2]].L.G.[am]}$PEPTIDE1,PEPTIDE1,1:R1-5:R3$$$V2.0; C-terminus assumed; bridges inferred) gave an Emax of 145%.
In the case of `CC[C@H](C)[C@@H]1NC(=O)[C@H](Cc2ccc(O)cc2)NC(=O)CCS(=O)(=O)CC[C@@H](C(=O)N2C[C@@H](F)C[C@H]2C(=O)N[C@@H](CC(C)C)C(=O)NCC(N)=O)NC(=O)[C@H](CC(N)=O)NC(=O)[C@H](CCC(N)=O)NC1=O` [Example 7] (HELM PEPTIDE1{Y.I.Q.N.[O=C([C@H](CCS(=O)(=O)CCC(=O)[*:3])N[*:1])[*:2]].[O=C([C@@H]1C[C@H](F)CN1[*:1])[*:2]].L.G.[am]}$PEPTIDE1,PEPTIDE1,1:R1-5:R3$$$V2.0), the Emax is reported as 141% and the EC50 is reported as 2.6 nM.
Compound `CC[C@H](C)[C@@H]1NC(=O)[C@H](Cc2ccc(O)cc2)NC(=O)CCS(=O)(=O)CC[C@@H](C(=O)N2C[C@H](O)C[C@H]2C(=O)N[C@@H](CC(C)C)C(=O)NCC(N)=O)NC(=O)[C@H](CC(N)=O)NC(=O)[C@H](CCC(N)=O)NC1=O` [Example 8] (HELM PEPTIDE1{Y.I.Q.N.[O=C([C@H](CCS(=O)(=O)CCC(=O)[*:3])N[*:1])[*:2]].[Hyp].L.G.[am]}$PEPTIDE1,PEPTIDE1,1:R1-5:R3$$$V2.0) has an Emax of 129% and an EC50 of 0.8 nM.
With `CCCC[C@H](NC(=O)CN(C)C(=O)[C@@H]1CCS(=O)(=O)CCC(=O)N[C@@H](Cc2ccc(O)cc2)C(=O)N[C@@H]([C@@H](C)CC)C(=O)N[C@@H](CCC(N)=O)C(=O)N[C@@H](CC(N)=O)C(=O)N1)C(=O)NCC(N)=O` [Example 9] (HELM PEPTIDE1{Y.I.Q.N.[O=C([C@H](CCS(=O)(=O)CCC(=O)[*:3])N[*:1])[*:2]].[Sar].[Nle].G.[am]}$PEPTIDE1,PEPTIDE1,1:R1-5:R3$$$V2.0) the Emax was 104% and the EC50 was 1 nM.
In the case of `CC[C@H](C)[C@@H]1NC(=O)[C@H](Cc2ccc(O)cc2)NC(=O)CCS(=O)(=O)CC[C@@H](C(=O)N(C)CC(=O)NC(C)(C)C(=O)NCC(N)=O)NC(=O)[C@H](CC(N)=O)NC(=O)[C@H](CCC(N)=O)NC1=O` [Example 10] (HELM PEPTIDE1{Y.I.Q.N.[O=C([C@H](CCS(=O)(=O)CCC(=O)[*:3])N[*:1])[*:2]].[Sar].[Aib].G.[am]}$PEPTIDE1,PEPTIDE1,1:R1-5:R3$$$V2.0; C-terminus assumed; bridges inferred), the Emax is reported as 100%.
With `CC[C@H](C)[C@@H]1NC(=O)[C@H](Cc2ccc(O)cc2)NC(=O)CCS(=O)(=O)CC[C@@H](C(=O)N(C)CC(=O)N[C@@H](CC2CCCCC2)C(=O)NCC(N)=O)NC(=O)[C@H](CC(N)=O)NC(=O)[C@H](CCC(N)=O)NC1=O` [Example 11] (HELM PEPTIDE1{Y.I.Q.N.[O=C([C@H](CCS(=O)(=O)CCC(=O)[*:3])N[*:1])[*:2]].[Sar].[Cha].G.[am]}$PEPTIDE1,PEPTIDE1,1:R1-5:R3$$$V2.0; C-terminus assumed; bridges inferred) the Emax was 115%.
Work on `CC[C@H](C)[C@@H]1NC(=O)[C@H](Cc2ccc(O)cc2)NC(=O)CCS(=O)(=O)CC[C@@H](C(=O)N(C)CC(=O)N[C@H](C(=O)NCC(N)=O)C(C)C)NC(=O)[C@H](CC(N)=O)NC(=O)[C@H](CCC(N)=O)NC1=O` [Example 12] (HELM PEPTIDE1{Y.I.Q.N.[O=C([C@H](CCS(=O)(=O)CCC(=O)[*:3])N[*:1])[*:2]].[Sar].V.G.[am]}$PEPTIDE1,PEPTIDE1,1:R1-5:R3$$$V2.0) yielded an Emax of 112% and an EC50 of 1.4 nM.
With `CC[C@H](C)[C@H](NC(=O)CN(C)C(=O)[C@@H]1CCS(=O)(=O)CCC(=O)N[C@@H](Cc2ccc(O)cc2)C(=O)N[C@@H]([C@@H](C)CC)C(=O)N[C@@H](CCC(N)=O)C(=O)N[C@@H](CC(N)=O)C(=O)N1)C(=O)NCC(N)=O` [Example 13] (HELM PEPTIDE1{Y.I.Q.N.[O=C([C@H](CCS(=O)(=O)CCC(=O)[*:3])N[*:1])[*:2]].[Sar].I.G.[am]}$PEPTIDE1,PEPTIDE1,1:R1-5:R3$$$V2.0; C-terminus assumed; bridges inferred) the Emax was 117%.
`CCC[C@H](NC(=O)CN(C)C(=O)[C@@H]1CCS(=O)(=O)CCC(=O)N[C@@H](Cc2ccc(O)cc2)C(=O)N[C@@H]([C@@H](C)CC)C(=O)N[C@@H](CCC(N)=O)C(=O)N[C@@H](CC(N)=O)C(=O)N1)C(=O)NCC(N)=O` [Example 14] (HELM PEPTIDE1{Y.I.Q.N.[O=C([C@H](CCS(=O)(=O)CCC(=O)[*:3])N[*:1])[*:2]].[Sar].[Nva].G.[am]}$PEPTIDE1,PEPTIDE1,1:R1-5:R3$$$V2.0; C-terminus assumed; bridges inferred) showed an Emax of 117% and an EC50 of 0.7 nM.
Work on `CC[C@H](C)[C@@H]1NC(=O)[C@H](Cc2ccc(O)cc2)NC(=O)CCS(=O)(=O)CC[C@@H](C(=O)N(C)CC(=O)N[C@@H](CCC(C)C)C(=O)NCC(N)=O)NC(=O)[C@H](CC(N)=O)NC(=O)[C@H](CCC(N)=O)NC1=O` [Example 15] (HELM PEPTIDE1{Y.I.Q.N.[O=C([C@H](CCS(=O)(=O)CCC(=O)[*:3])N[*:1])[*:2]].[Sar].[CC(C)CC[C@H](N[*:1])C(=O)[*:2]].G.[am]}$PEPTIDE1,PEPTIDE1,1:R1-5:R3$$$V2.0) yielded an Emax of 107% and an EC50 of 1 nM.
For `CC[C@H](C)[C@@H]1NC(=O)[C@H](Cc2ccc(O)cc2)NC(=O)CCS(=O)(=O)CC[C@@H](C(=O)N(C)CC(=O)N[C@@H](Cc2ccccc2)C(=O)NCC(N)=O)NC(=O)[C@H](CC(N)=O)NC(=O)[C@H](CCC(N)=O)NC1=O` [Example 16] (HELM PEPTIDE1{Y.I.Q.N.[O=C([C@H](CCS(=O)(=O)CCC(=O)[*:3])N[*:1])[*:2]].[Sar].F.G.[am]}$PEPTIDE1,PEPTIDE1,1:R1-5:R3$$$V2.0), the Emax was 104% and the EC50 was 5.6 nM.
